In patent US4898815A (priority 1983, dated 1990):

Test system: intestinal loop of C3H mice
Parameters: species or system C3H mouse
Conditions: mouse, in vivo

Q: For cholera toxin, which “weight per cm of intestine (milligrams per centimeter of intestine)” value is on record?
A: 126.7 mg
